Assays:
Type in all cases: functional, cell-based
ECa-109 cell line = assay: Antiproliferative activity against human ECA109 cells after 72 hrs by MTT assay; conditions: ECa-109, 72 h
MGC-803 = assay: Antiproliferative activity against human MGC803 cells after 72 hrs by MTT assay; conditions: MGC-803, 72 h
PC-3 = assay: Antiproliferative activity against human PC3 cells after 72 hrs by MTT assay; conditions: PC-3, 72 h
MCF7 = assay: Antiproliferative activity against human MCF7 cells after 72 hrs by MTT assay; conditions: MCF7, 72 h
A549 = assay: Antiproliferative activity against human A549 cells after 72 hrs by MTT assay; conditions: A549, 72 h
SMMC-7721 = assay: Antiproliferative activity against human SMMC7721 cells after 72 hrs by MTT assay; conditions: SMMC-7721, 72 h

Row | IC50 (MGC-803) | IC50 (PC-3) | IC50 (MCF7) | IC50 (A549) | IC50 (SMMC-7721) | SMILES | IC50 (ECa-109 cell line)
1 | 5.2 µM | 9.6 µM | 15.2 µM |  |  | C=C1C(=O)[C@]23[C@H](O)[C@H]1C[C@H](O)[C@H]2[C@]12CCCC(C)(C)[C@H]1C[C@H]3O[C@@H]2OCCCn1cc(CSc2nncs2)nn1 | 5.6 µM
2 | 35 µM | 16.1 µM | 4.8 µM |  |  | C=C1C(=O)[C@]23[C@H](O)[C@H]1C[C@H](O)[C@H]2[C@]12CCCC(C)(C)[C@H]1C[C@H]3O[C@@H]2OCCCn1cc(CN2C(=O)S/C(=C\c3ccc(F)c(F)c3)C2=O)nn1 | 3.3 µM
3 | 9.7 µM | 10 µM | 7.6 µM | 13.6 µM | 12 µM | C=C1C(=O)[C@]23[C@H](O)[C@H]1C[C@H](O)[C@H]2[C@]12CCCC(C)(C)[C@H]1C[C@H]3OC2OCCCN=[N+]=[N-] (single isomer, unassigned) | 10.1 µM
4 | > 50 µM | 5.8 µM | 9.5 µM |  |  | C=C1C(=O)[C@]23[C@H](O)[C@H]1C[C@H](O)[C@H]2[C@]12CCCC(C)(C)[C@H]1C[C@H]3O[C@@H]2OCCCn1cc(CN2C(=O)CSC2=O)nn1 | 35 µM
5 | 1.7 µM | 1.4 µM | 2.6 µM | 4 µM | 3.5 µM | C=C1C(=O)[C@]23[C@H](O)[C@H]1C[C@H](O)[C@H]2[C@]12CCCC(C)(C)[C@H]1C[C@H]3O[C@@H]2OCCCn1cc(CSC2=NCCS2)nn1 | 0.8 µM
6 | 2.1 µM | 8.9 µM | 4.1 µM | 7.8 µM | 3.4 µM | C=C1C(=O)[C@]23[C@H](O)[C@H]1C[C@H](O)[C@H]2[C@]12CCCC(C)(C)[C@H]1C[C@H]3O[C@@H]2OCCCn1cc(CN2C(=O)S/C(=C/CC)C2=O)nn1 | 2.5 µM
7 | 4.5 µM | 7.7 µM | 14.6 µM |  |  | C=C1C(=O)[C@]23[C@H](O)[C@H]1C[C@H](O)[C@H]2[C@]12CCCC(C)(C)[C@H]1C[C@H]3O[C@@H]2OCCCn1cc(CSc2nnc(C)s2)nn1 | 6.2 µM
8 | 27.8 µM | 13.2 µM | 4.9 µM |  |  | C=C1C(=O)[C@]23[C@H](O)[C@H]1C[C@H](O)[C@H]2[C@]12CCCC(C)(C)[C@H]1C[C@H]3O[C@@H]2OCCCn1cc(CN2C(=O)S/C(=C\c3ccc([N+](=O)[O-])cc3)C2=O)nn1 | 5.4 µM
9 | 27.1 µM | 24.3 µM | 21.1 µM | 16.4 µM | 14.6 µM | C=C1C(=O)[C@]23[C@H](O)[C@H]1C[C@H](O)[C@H]2[C@]12CCCC(C)(C)[C@H]1C[C@H]3O[C@H]2O | 25.2 µM
10 | 29.7 µM | 13.4 µM | 15.7 µM |  |  | C=C1C(=O)[C@]23[C@H](O)[C@H]1C[C@H](O)[C@H]2[C@]12CCCC(C)(C)[C@H]1C[C@H]3O[C@@H]2OCCCn1cc(CN2C(=O)S/C(=C\c3ccc(F)cc3)C2=O)nn1 | 4.7 µM
11 | 10.1 µM | 13.9 µM | 4.1 µM |  |  | C=C1C(=O)[C@]23[C@H](O)[C@H]1C[C@H](O)[C@H]2[C@]12CCCC(C)(C)[C@H]1C[C@H]3O[C@@H]2OCCCn1cc(CN2C(=O)S/C(=C\c3cc(OC)c(OC)c(OC)c3)C2=O)nn1 | 11.8 µM
12 | 1.2 µM | 5.3 µM | 1.9 µM | 4.8 µM | 5.3 µM | C=C1C(=O)[C@]23[C@H](O)[C@H]1C[C@H](O)[C@H]2[C@]12CCCC(C)(C)[C@H]1C[C@H]3O[C@@H]2OCCCn1cc(CN2C(=O)S/C(=C/CCCCC)C2=O)nn1 | 4.2 µM
13 | 8.9 µM | 11.6 µM | 13.6 µM |  |  | C=C1C(=O)[C@]23[C@H](O)[C@H]1C[C@H](O)[C@H]2[C@]12CCCC(C)(C)[C@H]1C[C@H]3O[C@@H]2OCCCn1cc(CSc2nnnn2C)nn1 | 8.6 µM
14 | 25.9 µM | 18.4 µM | 7.9 µM |  |  | C=C1C(=O)[C@]23[C@H](O)[C@H]1C[C@H](O)[C@H]2[C@]12CCCC(C)(C)[C@H]1C[C@H]3O[C@@H]2OCCCn1cc(CN2C(=O)S/C(=C\c3ccccc3Cl)C2=O)nn1 | 2.6 µM
15 | 2.1 µM | 1.6 µM | 4.2 µM | 5.8 µM | 1.8 µM | C=C1C(=O)[C@]23[C@H](O)[C@H]1C[C@H](O)[C@H]2[C@]12CCCC(C)(C)[C@H]1C[C@H]3O[C@@H]2OCCCn1cc(CSc2nc3ccccc3s2)nn1 | 1.4 µM
16 | 5.2 µM | 5.9 µM | 14.9 µM |  |  | C=C1C(=O)[C@]23[C@H](O)[C@H]1C[C@H](O)[C@H]2[C@]12CCCC(C)(C)[C@H]1C[C@H]3O[C@@H]2OCCCn1cc(CSc2ncccn2)nn1 | 5 µM
17 | 17.3 µM | 11.5 µM | 8.9 µM |  |  | C=C1C(=O)[C@]23[C@H](O)[C@H]1C[C@H](O)[C@H]2[C@]12CCCC(C)(C)[C@H]1C[C@H]3O[C@@H]2OCCCn1cc(CN2C(=O)S/C(=C\c3ccc(OC)cc3)C2=O)nn1 | 9.3 µM
18 | 34.3 µM | 43.9 µM | 64.3 µM | 25.4 µM | 30.1 µM | C=C1C(=O)[C@]23[C@H](O)[C@H]1CC[C@H]2[C@@]12CO[C@]3(O)[C@@H](O)[C@@H]1C(C)(C)CC[C@@H]2O [ORIDONIN] | 33.6 µM
19 | 20 µM | 13.2 µM | 6.6 µM |  |  | C=C1C(=O)[C@]23[C@H](O)[C@H]1C[C@H](O)[C@H]2[C@]12CCCC(C)(C)[C@H]1C[C@H]3O[C@@H]2OCCCn1cc(CN2C(=O)S/C(=C\c3ccccc3)C2=O)nn1 | 4.9 µM
20 | 2.5 µM | 6.2 µM | 4.3 µM | 9.2 µM | 5.7 µM | C=C1C(=O)[C@]23[C@H](O)[C@H]1C[C@H](O)[C@H]2[C@]12CCCC(C)(C)[C@H]1C[C@H]3O[C@@H]2OCCCn1cc(CN2C(=O)SC(=C(C)C)C2=O)nn1 | 4.9 µM
